The source of these data is patent publication US8476256B2, “Diazonamide analogs” (Joyant Pharmaceuticals, Inc., priority 2008, dated 2013).

For assay [1], the system named is MiaPaca (pancreatic cancer) cells. Description: MiaPaca xenograft model, tumor free animals. Format: in vivo, Athymic nude mice. As to conditions: 20 mg/kg, tail vein injection, 6 injections (days 9, 11, 14, 16, 18, 21); at 35 days post tumor cell injection; 7 mice/group. The method, then: Animals: Athymic nude mice, female, 6-7 weeks old, 20-25 g. Animals bearing with 180-400 mg tumors were selected for experiment. 7 mice/group.
Administration: Tail vein injection, 200 μL/mouse, to provide the dose indicated.
Dosing schedule: 6 injections were given on the days indicated post-tumor cell injection.
Controls: Vehicle, Compound J at 20 mg/kg.
Test Compound preparation: Compound J and all test compounds were dissolved in 50% Cremophore/EtOH (1:1) at 10 mg/mL as stock solution. Each compound solution was diluted with saline before injection to the concentration indicated.
Xenograft Model: MiaPaca (pancreatic cancer) cells
Dosing schedule: 6 injections were given on days 9, 11, 14, 16, 18 and 21 post-tumor cell injection.
Test Compounds: Example 23, Example 24, and Example 53, at 20 mg/kg.
For animals treated with the compound of Example 24 at 20 mg/kg, 7 of 7 animals were tumor free at 35 days post tumor cell injection.

For assay [2], the system named is A2058 (human melanoma) cell line. Nature of the assay: Cell viability assay (CELL-TITER-GLO), A2058. As to conditions: A2058 cells, 48 hour treatment, 1 nM to 1 μM. The format is cell-based. How it is done:
(§1) Cell viability assays were run using standard protocols known to those of skill in art. Cells were plated in 96 well plates at the density of 3,000-10,000 cells per well. Twenty four hours later, cells were treated with increasing concentration of test compounds (1 nM to 1 μM). After another 48 hour, cell survival was measured using CELL-TITER-GLO® reagent (Promega) following the protocol provided by the manufacture. The IC50 value was determined as the concentration of test compound that kills 50% of the cell population.
(§2) Cell viability data generated according to the protocol described herein was generated for representative compounds in the A2058 (human melanoma) and U937 (human leukemic monocyte lymphoma) cell lines. The compound of Example 16 (“Compound J”) was used as a reference compound.

The test system of assay [3] is U937 (human leukemic monocyte lymphoma) cell line. Nature of the assay: Cell viability assay (CELL-TITER-GLO), U937. As to conditions: U-937, U937 cells, 48 hour treatment, 1 nM to 1 μM. The format is cell-based. The method, then:
as §1, §2

By IC50 is commonly meant the concentration at which inhibition is half-maximal. On to `CC(C)[C@H](O)C(=O)N[C@H]1Cc2ccc3c(c2)[C@]24C5=C(N=C(O5)[C@H](C(C)C)NC1=O)c1ncc(o1)-c1c[nH]c5cccc(c15)-c1cccc2c1NC4O3` (stereo partly shown) [Example 16, reference compound], for which, in assay [1], the “Tumor-free animals out of 7” value is reported as 0/7 (35). The concentration for half-maximal inhibition (IC50) came out at 0.043 µM in assay [2] and 0.034 µM in assay [3].

Turning to `CCC(C)(O)C(=O)NC1Cc2ccc3c(c2)[C@]24C5=C(N=C(O5)[C@H](C(C)C)NC1=O)c1ncc(o1)-c1c[nH]c5cccc(c15)-c1cccc2c1NC4O3` (stereo partly shown) [Example 23], in assay [1], the “Tumor-free animals out of 7” value is listed as 0/7 (35). Moreover, the figures for the IC50 in assay [2] and in assay [3] were 0.124 µM and 0.156 µM, respectively.

With `CC(C)[C@@H]1NC(=O)C(NC(=O)[C@H]2CCOC2)Cc2ccc3c(c2)[C@]24C5=C(N=C1O5)c1ncc(o1)-c1c[nH]c5cccc(c15)-c1cccc2c1NC4O3` (stereo partly shown) [Example 53], in assay [1], the “Tumor-free animals out of 7” value is 1/7 (35). Moreover, the IC50 was found to be 0.209 µM in assay [2] and 0.078 µM in assay [3].

With `CCCSC(=O)NC1Cc2ccc3c(c2)[C@]24C5=C(N=C(O5)[C@H](C(C)C)NC1=O)c1ncc(o1)-c1c[nH]c5cccc(c15)-c1cccc2c1NC4O3` (stereo partly shown) [Example 72], the values for the IC50 in assay [2] and in assay [3] were 0.6 µM and 0.543 µM, respectively.

Turning to `CC(C)[C@@H]1NC(=O)C(NS(C)(=O)=O)Cc2ccc3c(c2)C24C5=C(N=C1O5)c1ncc(o1)-c1c[nH]c5cccc(c15)-c1cccc2c1N[C@H]4O3` (stereo partly shown) [Example 73], the IC50 in assay [2] is 0.14 µM; in assay [3], 0.067 µM.

Take `CC(C)[C@@H]1NC(=O)C(NS(=O)(=O)c2ccccc2)Cc2ccc3c(c2)[C@]24C5=C(N=C1O5)c1ncc(o1)-c1c[nH]c5cccc(c15)-c1cccc2c1NC4O3` (stereo partly shown) [Example 74]: the concentration for half-maximal inhibition (IC50) in assay [2] is 0.429 µM; in assay [3], over 1 µM.

For `CC(C)[C@@H]1NC(=O)C(NS(=O)(=O)c2cccs2)Cc2ccc3c(c2)[C@]24C5=C(N=C1O5)c1ncc(o1)-c1c[nH]c5cccc(c15)-c1cccc2c1NC4O3` (stereo partly shown) [Example 75], the IC50 in assay [2] and in assay [3] was over 1 µM throughout.

Consider `COC(=O)c1nc2oc1-c1c[nH]c3cccc(c13)-c1cccc3c1N[C@H]1Oc4ccc5cc4C31c1oc(nc1-2)[C@H](C(C)C)NC(=O)C(NC(=O)[C@@H](O)C(C)C)C5` (stereo partly shown) [Example 76], for which the IC50 in assay [2] was determined as 0.013 µM; in assay [3], 0.018 µM.

With `CC(C)[C@H](O)C(=O)NC1Cc2ccc3c(c2)C24C5=C(N=C(O5)[C@H](C(C)C)NC1=O)c1ncc(o1)-c1c[nH]c5c(O)ccc(c15)-c1cccc2c1N[C@H]4O3` (stereo partly shown) [Example 77], the IC50 in assay [2] was 0.07 µM; in assay [3] it was 0.052 µM.

For the compound `COc1ccc2c3c(c[nH]c13)-c1cnc(o1)-c1nc3oc1C14c5cc(ccc5O[C@@H]1Nc1c-2cccc14)CC(NC(=O)[C@@H](O)C(C)C)C(=O)N[C@H]3C(C)C` (stereo partly shown) [Example 78], the 50% inhibitory concentration (IC50) is 0.042 µM in assay [2] and 0.051 µM in assay [3].

Consider `COc1ccc2c3c(cn(C)c13)-c1cnc(o1)-c1nc3oc1C14c5cc(ccc5O[C@@H]1Nc1c-2cccc14)CC(NC(=O)[C@@H](O)C(C)C)C(=O)N[C@H]3C(C)C` (stereo partly shown) [Example 79], for which the IC50 worked out at 0.022 µM in assay [2] and 0.027 µM in assay [3].

Take `CCC(O)(CC)C(=O)N[C@H]1Cc2ccc3c(c2)C24C5=C(N=C(O5)[C@H](C(C)C)NC1=O)c1ncc(o1)-c1c[nH]c5c(O)ccc(c15)-c1cccc2c1N[C@H]4O3` (stereo partly shown) [Example 80]: the results for the IC50 in assay [2] and in assay [3] were 0.183 µM and 0.182 µM, respectively.

In the case of `CCC(O)(CC)C(=O)N[C@H]1Cc2ccc3c(c2)C24C5=C(N=C(O5)[C@H](C(C)C)NC1=O)c1ncc(o1)-c1c[nH]c5c(OC)ccc(c15)-c1cccc2c1N[C@H]4O3` (stereo partly shown) [Example 81], the 50% inhibitory concentration (IC50) was 0.123 µM in assay [2] and 0.054 µM in assay [3].

On to `CCC(O)(CC)C(=O)N[C@H]1Cc2ccc3c(c2)C24C5=C(N=C(O5)[C@H](C(C)C)NC1=O)c1ncc(o1)-c1cn(C)c5c(OC)ccc(c15)-c1cccc2c1N[C@H]4O3` (stereo partly shown) [Example 82], for which the half-inhibitory concentration (IC50) came to 0.029 µM in assay [2] and 0.021 µM in assay [3].

Consider `CC(C)[C@H](O)C(=O)N[C@H]1Cc2ccc3c(c2)C24C5=C(N=C(O5)[C@H](C(C)C)NC1=O)c1nc(Cl)c(o1)-c1c(Cl)[nH]c5cccc(c15)-c1cc(Cl)cc2c1N[C@H]4O3` (stereo partly shown) [Example 83], for which the values for the IC50 in assay [2] and in assay [3] were 0.63 µM and 0.693 µM, respectively.

Regarding `CC(C)[C@H](O)C(=O)N[C@H]1Cc2ccc3c(c2)C24C5=C(N=C(O5)[C@H](C(C)C)NC1=O)c1ncc(o1)-c1c[nH]c5cccc(c15)-c1cc(Br)cc2c1N[C@H]4O3` (stereo partly shown) [Example 84], the IC50 worked out at 0.51 µM in assay [2] and 0.648 µM in assay [3].

`CC(C)[C@H](O)C(=O)N[C@H]1Cc2ccc3c(c2)C24C5=C(N=C(O5)[C@H](C(C)C)NC1=O)c1nc(Cl)c(o1)-c1c[nH]c5cccc(c15)-c1cccc2c1N[C@H]4O3` (stereo partly shown) [Example 86]: the results for the IC50 in assay [2] and in assay [3] were 0.081 µM and 0.084 µM, respectively.

Regarding `CCC(O)(CC)C(=O)N[C@H]1Cc2ccc3c(c2)C24C5=C(N=C(O5)[C@H](C(C)C)NC1=O)c1ncc(o1)-c1c[nH]c5cccc(c15)-c1cc(Br)cc2c1N[C@H]4O3` (stereo partly shown) [Example 87], the half-maximal inhibitory concentration (IC50) in assay [2] and in assay [3] was over 1 µM in each case.

As for `CCC(O)(CC)C(=O)N[C@H]1Cc2ccc3c(c2)C24C5=C(N=C(O5)[C@H](C(C)C)NC1=O)c1nc(Br)c(o1)-c1c[nH]c5cccc(c15)-c1cc(Br)cc2c1N[C@H]4O3` (stereo partly shown) [Example 88], the IC50 in assay [2] and in assay [3] was over 1 µM throughout.

Turning to `CC(C)[C@H](O)C(=O)N[C@H]1Cc2ccc3c(c2)C24C5=C(N=C(O5)[C@H](C(C)C)NC1=O)c1nc(Br)c(o1)-c1c(Cl)[nH]c5cccc(c15)-c1cccc2c1N[C@H]4O3` (stereo partly shown) [Example 89], the half-inhibitory concentration (IC50) in assay [2] turned out to be 0.158 µM; in assay [3], 0.079 µM.

Consider `CCC(O)(CC)C(=O)NC1Cc2ccc3c(c2)C24C5=C(N=C(O5)[C@H](C(C)C)NC1=O)c1nc(Cl)c(o1)-c1c(Cl)[nH]c5cccc(c15)-c1cccc2c1N[C@H]4O3` (stereo partly shown) [Example 90], for which the IC50 in assay [2] worked out at 0.375 µM; in assay [3], 0.302 µM.

Take `CCC(O)(CC)C(=O)NC1Cc2ccc3c(c2)C24C5=C(N=C(O5)[C@H](C(C)C)NC1=O)c1nc(Cl)c(o1)-c1c(Cl)[nH]c5cccc(c15)-c1cc(Cl)cc2c1N[C@H]4O3` (stereo partly shown) [Example 91]: the half-maximal inhibitory concentration (IC50) in assay [2] and in assay [3] was over 1 µM throughout.

Take `CC(C)[C@@H]1NC(=O)C(NC(C[N+](=O)[O-])C(F)(F)F)Cc2ccc3c(c2)C24C5=C(N=C1O5)c1ncc(o1)-c1c[nH]c5cccc(c15)-c1cccc2c1N[C@H]4O3` (stereo partly shown) [Example 92]: the IC50 in assay [2] was over 1 µM; in assay [3], 0.75 µM.
